Our source for the EC50 and Emax values is patent US20060240048A1 (priority 2002, published 2006).

Each structure is given as a SMILES string. Where only a bound is given, the exact number is not on record here.

For this experiment, the target named is T1, human cannabinoid CB2 receptor (Homo sapiens, UniProt P34972).
T1 construct: expressed in transfected cells; host or cells: Saccharomyces cerevisiae strain MMY23
Nature of the experiment: Cannabinoid CB2 receptor agonist activity, yeast reporter assay (FDGlu fluorescence).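 For Emax: 100% equals maximal response of reference agonist HU210.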 In kind it is cell-based. Particulars: for Emax: read-out: efficacy value (Emax) at the cloned human cannabinoid CB2 receptor. As for the experimental part:
The cannabinoid CB2 receptor agonist activity of the compounds of formula (I) was determined in accordance with the following experimental method.
Yeast (Saccharomyces cerevisiae) cells expressing the human cannabinoid CB2 receptor were generated by integration of an expression cassette into the ura3 chromosomal locus of yeast strain MMY23. This cassette consisted of DNA sequence encoding the human CB2 receptor flanked by the yeast GPD promoter to the 5′ end of CB2 and a yeast transcriptional terminator sequence to the 3′ end of CB2. MMY23 expresses a yeast/mammalian chimeric G-protein alpha subunit in which the C-terminal 5 amino acids of Gpa1 are replaced with the C-terminal 5 amino acids of human Gαi3 (as described in Brown et al. (2000), Yeast 16:11-22). Cells were grown at 30° C. in liquid Synthetic Complete (SC) yeast media (Guthrie and Fink (1991), Methods in Enzymology, Vol. 194) lacking uracil, tryptophan, adenine and leucine to late logarithmic phase (approximately 6 OD600/ml).
Agonists were prepared as 10 mM stocks in DMSO. […] Agonist solutions in DMSO (1% final assay volume) were transferred into black, clear bottom, microtitre plates from NUNC (96- or 384-well). […] This mixture (50 ul per well for 384-well plates, 200 ul per well for 96-well plates) was added to agonist in the assay plates (Multidrop 384, Labsystems). After incubation at 30° C. for 24 hours, fluorescence resulting from degradation of FDGlu to fluorescein due to exoglucanase, an endogenous yeast enzyme produced during agonist-stimulated cell growth, was determined using a Spectrofluor microtitre plate reader (Tecan; excitation wavelength: 485 nm; emission wavelength: 535 nm). Fluorescence was plotted against compound concentration and iteratively curve fitted using a four parameter fit to generate a concentration effect value.
where Max[compound X] and Min[compound X] are the fitted maximum and minimum respectively from the concentration effect curve for compound X, and Max[HU210] and Min[HU210] are the fitted maximum and minimum respectively from the concentration effect curve for (6aR,10aR)-3-(1,1′-Dimethylheptyl)-6a,7,10,10a-tetrahydro-1-hydroxy-6,6-dimethyl-6H-dibenzo[b,d]pyran-9-methanol (HU210; available from Tocris). Equieffective molar ratio (EMR) values were calculated from the equation EMR=EC50 [compound X]/EC50 [HU210]
Where EC50 [compound X] is the EC50 of compound X and EC50 [HU210] is the EC50 of HU210.
(In general: In a reporter assay the amount or activity of a reporter protein is the signal.)

T1 sequence (P34972 whole entry): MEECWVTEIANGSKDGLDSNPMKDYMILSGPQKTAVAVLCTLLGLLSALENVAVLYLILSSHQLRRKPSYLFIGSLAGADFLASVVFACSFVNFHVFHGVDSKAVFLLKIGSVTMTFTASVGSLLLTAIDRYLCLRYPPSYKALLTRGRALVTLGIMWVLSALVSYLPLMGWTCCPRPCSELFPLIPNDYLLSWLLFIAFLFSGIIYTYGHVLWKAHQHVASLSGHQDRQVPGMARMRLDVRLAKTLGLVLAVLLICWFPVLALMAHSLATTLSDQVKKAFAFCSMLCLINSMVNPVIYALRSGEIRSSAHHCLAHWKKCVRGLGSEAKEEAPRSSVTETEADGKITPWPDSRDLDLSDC

A word on the EC50: it is the concentration that produces a half-maximal response. Usually Emax stands for the size of the effect at its maximum, as opposed to the concentration needed. As for `O=C(NCC1CCC1)c1cnc(Nc2ccccc2F)cc1C(F)(F)F` [Example 124, N-Cyclobutylmethyl-6-(2-fluoro-phenylamino)-4-tri-fluoromethyl-nicotinamide], the 50% effective concentration (EC50) was less than 300 nM and the maximal response (Emax) is more than 50%.

Regarding `O=C(NCC1CC1)c1cnc(Nc2ccc(Cl)cc2Cl)cc1C(F)(F)F` [Example 144, N-Cyclopropylmethyl-6-(2,4-dichloro-phenylamino)-4-tri-fluoromethyl-nicotinamide], the 50% effective concentration (EC50) was less than 300 nM and the Emax was more than 50%.

Regarding `CC(C)c1cc(Nc2cccc(Cl)c2)ncc1C(=O)NC1CCC1` [Example 50, 6-(3-Chloro-phenylamino)-N-cyclobutyl-4-isopropyl-nicotinamide], the EC50 was less than 300 nM and the maximal effect (Emax) is more than 50%.

Consider `CC(C)c1cc(Nc2ccc(C#N)cc2F)ncc1C(=O)NCC1CCOCC1` [Example 97, 6-(4-Cyano-2-fluoro-phenylamino)-4-isopropyl-N-(tetrahydro-pyran-4-ylmethyl)-nicotinamide], for which the Emax is more than 50%.

Consider `COCCNC(=O)c1cnc(Nc2cccc(Cl)c2)cc1C(C)C` [Example 57, 6-(3-Chloro-phenylamino)-4-isopropyl-N-(2-methoxy-ethyl)-nicotinamide], for which the Emax is more than 50%.

`Cc1cc(Cl)ccc1Nc1cc(C(F)(F)F)c(C(=O)NCC2CCOCC2)cn1` [Example 172, N-(Tetrahydropyran-4-yl-methyl)-6-(2-methyl-4-chloro-phenylamino)-4-trifluoro-]: the maximum response (Emax) is more than 50%.

With `O=C(NCC1CCC1)c1cnc(Nc2ccc(F)cc2)cc1C(F)(F)F` [Example 134, N-Cyclobutylmethyl-6-(4-fluoro-phenylamino)-4-trifluoromethyl-nicotinamide], the EC50 was less than 300 nM and the Emax is more than 50%.

Regarding `CC(C)c1cc(Nc2cc(C(F)(F)F)ccc2Cl)ncc1C(=O)NCC1CCOCC1` [Example 237, 6-(2-Chloro-5-trifluoromethyl-phenylamino)-4-isopropyl-N-(tetrahydro-pyran-4-ylmethyl)-nicotinamide], the EC50 is less than 300 nM and the maximum response (Emax) is more than 50%.

For the compound `CCC(CC)CNC(=O)c1cnc(Nc2cccc(Cl)c2)cc1C(C)C` [Example 52, 6-(3-Chloro-phenylamino)-N-(2-ethyl-butyl)-4-isopropyl-nicotinamide], the maximal effect (Emax) was more than 50%.

Take `CC(C)c1cc(Nc2ccc(F)cc2Cl)ncc1C(=O)NCC1CCCC1` [Example 29, 6-(2-Chloro-4-fluoro-phenylamino)-N-cyclopentylmethyl-4-isopropyl-nicotinamide]: the half-maximal effective concentration (EC50) was less than 300 nM and the Emax was more than 50%.

In the case of `CC(C)c1cc(Nc2cccc(C(F)(F)F)c2F)ncc1C(=O)NCC1CCOCC1` [Example 81, 6-(2-Fluoro-3-trifluoromethyl-isopropyl-N-phenylamino)-4-(tetrahydro-pyran-4-ylmethyl) nicotinamide], the maximum response (Emax) is more than 50%.

Regarding `CC(C)c1cc(Nc2ccc(Cl)cc2Br)ncc1C(=O)NCC1CCOCC1` [Example 83, 6-(2-Bromo-4-chloro-phenylamino)-4-isopropyl-N-(tetrahydro-pyran-4-ylmethyl) nicotinamide], the EC50 was less than 300 nM and the maximum response (Emax) was more than 50%.

With `CC(C)CNC(=O)c1cnc(Nc2cccc(C(F)(F)F)c2)cc1C(C)C` [Example 269, N-Isobutyl-4-isopropyl-6-(3-trifluoromethyl-phenylamlno)-nicotinamide], the concentration for a half-maximal effect (EC50) is less than 300 nM and the maximal effect (Emax) is more than 50%.

`CC(C)c1nc(Nc2ccc(Cl)cc2Cl)ccc1C(=O)NCC1CCC1` [Example 212, 6-(2,4-Dichloro-phenylamino)-N-cyclobutylmethyl-2-isopropyl-nicotinamide]: the concentration giving a half-maximal response (EC50) is less than 300 nM and the Emax was more than 50%.

With `CC(C)c1cc(Nc2ccc(Br)c(F)c2)ncc1C(=O)NCC1CCOCC1` [Example 297, 6-(4-Bromo-3-fluoro-phenylamino)-4-isopropyl-N-(tetrahydropyran-4-ylmethyl)-nicotinamide], the EC50 was less than 300 nM and the Emax is more than 50%.

Take `CC(C)c1cc(Nc2cc(Cl)ccc2Cl)ncc1C(=O)NCC1CCC1` [Example 264, N-Cyclobutylmethyl-6-(2,5-dichloro-phenylamino)-4-isopropyl-nicotinamide]: the EC50 is less than 300 nM and the Emax was more than 50%.

With `CC(C)c1cc(Nc2ccc(Br)c(Cl)c2)ncc1C(=O)NCC1CCOCC1` [Example 90, 6-(4-Bromo-3-chloro-phenylamino)-4-isopropyl-N-(tetrahydro-pyran-4-ylmethyl)-nicotinamide], the half-maximal effective concentration (EC50) is less than 300 nM and the maximal effect (Emax) was more than 50%.

In the case of `CC(C)c1cc(Nc2cccc(F)c2)ncc1C(=O)NCC1CCCC1` [Example 22, N-Cyclopentylmethyl-6-(3-fluorophenylamino)-4-isopropyl-nicotinamide], the EC50 was less than 300 nM and the maximum response (Emax) was more than 50%.

As to `O=C(NCC1CCOCC1)c1cnc(Nc2ccc(Cl)cc2Cl)cc1C(F)(F)F` [Example 105, 6-(2,4-Dichloro-phenylamino)-N-(tetrahydropyran-4-ylmethyl)-4-trifluoromethyl-nicotinamide], the Emax was more than 50%.

With `CC(C)c1cc(Nc2cc(F)cc(C(F)(F)F)c2)ncc1C(=O)NCC1CCOCC1` [Example 80, 6-(3-Fluoro-5-trifluoromethyl-phenylamino)-4-isopropyl-N-(tetrahydro-pyran-4-ylmethyl) nicotinamide], the EC50 was less than 300 nM and the Emax was more than 50%.

As for `CC(C)c1cc(Nc2cc(Cl)ccc2F)ncc1C(=O)NCC1CCC1` [Example 266, 6-(5-Chloro-2-fluoro-phenylamino)-N-cyclobutylmethyl-4-isopropyl-nicotinamide], the EC50 is less than 300 nM and the Emax was more than 50%.

As for `CC(C)c1cc(Nc2ccc(Br)c(C(F)(F)F)c2)ncc1C(=O)NCC1CCOCC1` [Example 294, 6-(4-Bromo-3-trifluoromethyl-phenylamino)-4-isopropyl-N-(tetrahydropyran-4-ylmethyl)-nicotinamide], the Emax is more than 50%.

Consider `Cc1cc(C#N)ccc1Nc1cc(C(C)C)c(C(=O)NCC2CCCC2)cn1` [Example 93, 6-(4-Cyano-2-methyl-phenylamino)-N-cyclopentylmethyl-4-isopropyl-nicotinamide], for which the concentration for a half-maximal effect (EC50) was less than 300 nM and the maximal effect (Emax) was more than 50%.

Turning to `CC(C)c1nc(Nc2cccc(Cl)c2)ccc1C(=O)NCC1CCOCC1` [Example 208, 6-(3-Chloro-phenylamino)-2-isopropyl-N-(tetrahydro-pyran-4-ylmethyl)-nicotinamide], the concentration for a half-maximal effect (EC50) is less than 300 nM and the Emax is more than 50%.

As to `CC(C)c1cc(Nc2cc(F)ccc2Cl)ncc1C(=O)NCC1CCC1` [Example 267, 6-(2-Chloro-5-fluoro-phenylamino)-N-cyclobutytmethyl-4-isopropyl-nicotinamide], the EC50 was less than 300 nM and the maximal response (Emax) is more than 50%.

On to `Cc1cccc(Nc2cc(C(C)C)c(C(=O)NCC3CCCC3)cn2)c1` [Example 24, N-Cyclopentylmethyl-4-isopropyl-6-m-tolylamino-nicotinamide], for which the EC50 is less than 300 nM and the Emax was more than 50%.

As to `CC(C)c1cc(Nc2cc(F)cc(F)c2)ncc1C(=O)NCC1CCC1` [Example 265, N-Cyclobutylmethyl-6-(3,5-difluoro-phenylamino)-4-isopropyl-nicotinamide], the concentration giving a half-maximal response (EC50) is less than 300 nM and the Emax was more than 50%.

As for `CC(C)c1cc(Nc2cccc(F)c2)ncc1C(=O)NCC1CCCCC1` [Example 10, N-Cyclohexylmethyl-6-(3-fluoro-phenylamino)-4-isopropyl-nicotinamide], the 50% effective concentration (EC50) was less than 300 nM and the Emax was more than 50%.

As for `CC(C)c1cc(Nc2cccc(F)c2)ncc1C(=O)NCC1CCOCC1` [Example 39, 6-(3-Fluoro-phenylamino)-4-isopropyl-N-(tetrahydro-pyran-4-ylmethyl)-nicotinamide], the maximal response (Emax) is more than 50%.

`CC(C)(C)c1cc(Nc2ccc(Cl)cc2Cl)ncc1C(=O)NCC1CCCCC1` [Example 70, 4-tert-Butyl-6-(2,4-dichloro-phenylamino)-N-cyclohexylmethyl-nicotinamide]: the 50% effective concentration (EC50) is less than 300 nM and the Emax was more than 50%.

Regarding `CC(C)c1nc(Nc2cccc(F)c2)ccc1C(=O)NCC1CCOCC1` [Example 218, 6-(3-Fluoro-phenylamino)-N-(tetrahydro-pyran-4-ylmethyl)-2-isopropyl-nicotinamide], the concentration for a half-maximal effect (EC50) was less than 300 nM and the Emax is more than 50%.
